From patent US9527896B2, “Stabilized p53 peptides and uses thereof” (DANA-FARBER CANCER INSTITUTE, INC., priority 2007, dated 2016) come the findings set out here.

Bridge positions count the residues as written; N and C are the ends. Square brackets hold non-standard residues; d marks the D form. Peptide text beside a SMILES is read from it. R8 = C=CCCCCCC[C@@](C)(N)C(=O)O; S5 = C=CCCC[C@](C)(N)C(=O)O; βAla = NCCC(=O)O

Data set [1] concerns RKO cells. In words: Annexin V binding as an indicator of apoptosis, RKO cells. It counts as cell-based. To be noted: 24 hours. The source says: FIG. 9 Annexin V binding as an indicator of apoptosis.
The nature of data set [2]: circular dichroism. The settings on record: water; pH 7.0; 20 °C; 10-50 uM.
Data set [3] concerns the target T1, HDM2 (Homo sapiens, UniProt Q00987).
T1 construct: Co-Immunoprecipitation of FITC-SAH-p53 Peptides and Endogenous HDM2; endogenous in cells; host or cells: SJSA-1 osteosarcoma cells
Put plainly: Kd (nM). The source says: The patent's description of the figure: FIGS. 1A-1F Synthesis, Sequence, and Biochemical Analysis of SAH-p53 Peptides. FIG. 1A Non-natural amino acids were synthesized as described and cross-linked by ruthenium-catalyzed ring-closing olefin metathesis. […] Note: UAH-p53-8 is the “unstapled” form of SAH-p53-8.

The target in data set [4] is T2, Native HDM2 (Homo sapiens, UniProt Q00987).
T2 construct: Co-Immunoprecipitation of FITC-SAH-p53 Peptides and Endogenous HDM2; endogenous in cells; host or cells: SJSA-1 osteosarcoma cells
T2 sequence (Q00987 whole entry): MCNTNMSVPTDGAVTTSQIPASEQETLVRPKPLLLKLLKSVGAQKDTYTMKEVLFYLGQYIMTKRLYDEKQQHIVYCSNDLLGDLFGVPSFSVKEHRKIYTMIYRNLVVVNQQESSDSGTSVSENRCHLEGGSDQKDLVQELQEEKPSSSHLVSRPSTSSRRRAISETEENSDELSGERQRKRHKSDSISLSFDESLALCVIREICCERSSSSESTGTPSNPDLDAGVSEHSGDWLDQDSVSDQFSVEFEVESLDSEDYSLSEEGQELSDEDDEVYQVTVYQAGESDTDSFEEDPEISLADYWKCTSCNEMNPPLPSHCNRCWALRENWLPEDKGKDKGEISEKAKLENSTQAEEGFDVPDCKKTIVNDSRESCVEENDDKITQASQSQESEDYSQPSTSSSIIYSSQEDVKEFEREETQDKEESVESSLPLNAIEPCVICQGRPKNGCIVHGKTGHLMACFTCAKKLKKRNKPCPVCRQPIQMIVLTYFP
Put plainly: Co-immunoprecipitation of FITC-SAH-p53 peptides and endogenous HDM2. It counts as cell-based. To be noted: SJSA-1 cells.
Description: FIG. 8 SJSA-1 cells were incubated with FITC-peptides followed by lysis and anti-FITC pull down.
SJSA-1 osteosarcoma cells (1×10^6) were treated with FITC-p53 peptides (15 μM) in serum-free media for 4 hours, followed by serum replacement and additional 8 hour incubation. The cells were thoroughly washed with serum-containing media and PBS and exposed to lysis buffer (50 mM Tris pH 7.6, 150 mM NaCl, 1% Triton-X100, 1 mM PMSF, 1 U mL^−1 benzonase nuclease [EMD Biosciences] and complete protease inhibitor tablet [Roche]) at room temperature. All subsequent steps were all performed at 4° C. The extracts were centrifuged, and the supernatants were incubated with protein A/G sepharose (50 μL 50% bead slurry per 0.5 mL lysatcs; Santa Cruz Biotechnology). The pre-cleared supernatants (500 μL) were collected after centrifugation, incubated with 10 μL of goat-anti-FITC antibody (AbCam) for 1.5 h followed by protein A/G sepharose for an additional 1.5 hours. The immunoprecipitation reactions were pelleted and washed three times with lysis buffer. The precipitated proteins were suspended in SDS-containing loading buffer, boiled, and the supernatants were processed by SDS-PAGE on 4-12% Bis-Tris gels (Invitrogen). The proteins were blotted into Immobilon-P membranes (Millipore). […]

T1 sequence (Q00987 whole entry, looked up): as the sequence (Q00987 whole entry) above

What is called Kd is the equilibrium constant for the complex coming apart. Read a high Kd as weaker binding. For `CC(=O)NCCC(=O)N[C@@H](CC(C)C)C(=O)N[C@@H](CO)C(=O)N[C@@H](CCC(N)=O)C(=O)N[C@@H](CCC(N)=O)C(=O)N[C@H](C(=O)N[C@@H](Cc1ccccc1)C(=O)N[C@]1(C)CCCCCCC=CCCC[C@@](C)(C(=O)N[C@@H](CCC(N)=O)C(=O)N[C@@H](CC(N)=O)C(N)=O)NC(=O)[C@H](CC(C)C)NC(=O)[C@H](CC(C)C)NC(=O)[C@H](CCCNC(=N)N)NC(=O)[C@H](Cc2c[nH]c3ccccc23)NC(=O)[C@H](CC(C)C)NC(=O)[C@H](CC(N)=O)NC1=O)[C@@H](C)O` [SAH-p53-6] (Ac-[βAla]LSQQTF[R8]NLWRLL[S5]QN-NH2; staple 8-15), in data set [1], the “apoptosis induction (annexin V, FACS)” value is reported as “caused significant apoptosis”. The molecule also gave a helicity in data set [2] of 14%. In data set [3], this molecule yielded a Kd of 56 ± 11 nM.
With “FITC-SAH-p53-8: N-terminally fluoresceinated SAH-p53-8”, the “co-immunoprecipitation of native HDM2 (anti-FITC pull down)” value in data set [4] is “co-immunoprecipitated”.
